The IC50 is the concentration at which inhibition is half-maximal.

The structures appear in SMILES notation. Like-named read-outs stand apart in the source and are kept apart here. A value given as a limit tells only on which side of the number the result lay.

The assay has as its target T1, P2X7 receptor (Homo sapiens, UniProt Q99572).
T1 construct: host or cells: SH-SY5Y
T1 sequence (Q99572 1-595): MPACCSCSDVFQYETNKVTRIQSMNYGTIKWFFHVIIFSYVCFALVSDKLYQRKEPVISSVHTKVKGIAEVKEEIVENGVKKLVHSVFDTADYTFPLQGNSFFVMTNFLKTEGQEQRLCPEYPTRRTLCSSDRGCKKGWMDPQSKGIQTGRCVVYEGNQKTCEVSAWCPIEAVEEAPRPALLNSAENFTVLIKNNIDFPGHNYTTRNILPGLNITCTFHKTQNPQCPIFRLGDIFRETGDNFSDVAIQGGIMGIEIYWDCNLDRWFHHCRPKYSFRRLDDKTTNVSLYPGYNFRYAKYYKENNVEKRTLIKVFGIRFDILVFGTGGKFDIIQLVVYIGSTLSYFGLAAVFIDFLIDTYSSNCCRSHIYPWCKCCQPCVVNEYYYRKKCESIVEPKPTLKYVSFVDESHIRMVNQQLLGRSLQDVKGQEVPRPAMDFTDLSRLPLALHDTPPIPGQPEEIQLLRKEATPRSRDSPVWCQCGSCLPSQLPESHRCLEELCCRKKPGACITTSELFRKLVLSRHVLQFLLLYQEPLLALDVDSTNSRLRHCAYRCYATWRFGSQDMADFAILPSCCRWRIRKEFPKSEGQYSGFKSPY
Nature of the assay: P2X7 calcium mobilization assay, high throughput, antagonist activity (Example 4A). The class given is cell-based. The note with it: 50% decrease in the fluorescence response of cells exposed to 80 μM of 2′(3′)-O-(4-benzoyl-benzoyl)adenosine 5′-triphosphate, read-out: IC50. The method in brief:
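100,000 cells/well, plated day -1. Dye 1 h → rinse → compound 1 h, RT → FLIPR^TETRA Ca2+ mobilization. Max RFU minus mean negative control (no agonist); mean agonist-well max as positive control.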
In general terms: Calcium assays in cells follow changes in intracellular calcium, usually with a dye or a luminescent sensor.

Turning to `CCOC(=O)C(CC(=O)N(CC)CC)c1cn2c(C(=O)NCC34CC5CC(CC(C5)C3)C4)cccc2n1` (stereo not shown) [Compound 810, ethyl 2-{5-[(adamantan-1-ylmethyl)carbamoyl]imidazo[1,2-a]pyridin-2-yl}-4-(diethylamino)-4-oxobutanoate], the IC50 (Example 4A) was less than 2000 nM.

With `CCN(CC)C(=O)CC(C(=O)O)c1cn2c(C(=O)NCC34CC5CC(CC(C5)C3)C4)cccc2n1` (stereo not shown) [Compound 811, 2-{5-[(adamantan-1-ylmethyl)carbamoyl]imidazo[1,2-a]pyridin-2-yl}-4-(diethylamino)-4-oxobutanoic acid], where the note is “Example 4A”, the IC50 was less than 2000 nM. Still for that read-out and setting: as for `CN(C)C(=O)CC(C(=O)O)c1cn2c(C(=O)NCC34CC5CC(CC(C5)C3)C4)cccc2n1` (stereo not shown) [Compound 812, 2-{5-[(adamantan-1-ylmethyl)carbamoyl]imidazo[1,2-a]pyridin-2-yl}-4-(dimethylamino)-4-oxobutanoic acid], the figure is less than 2000 nM; as for `O=C(NCC12CC3CC(CC(C3)C1)C2)c1cccc2nc(Cn3nnc(-c4cccnc4)n3)cn12` [Compound 813, N-(adamantan-1-ylmethyl)-2-[(5-pyridin-3-yl-2H-tetrazol-2-yl)methyl] imidazo[1,2-a] pyridine-5-carboxamide], less than 2000 nM; as for `O=C(NCC12CC3CC(CC(C3)C1)C2)c1cccc2nc(Cn3nnnc3-c3cccnc3)cn12` [Compound 814, N-(adamantan-1-ylmethyl)-2-[(5-pyridin-3-yl-1H-tetrazol-1-yl)methyl]imidazo [1,2-a]pyridine-5-carboxamide], less than 2000 nM. Still for that read-out and setting: as for `O=C(Nc1nnn[nH]1)c1cn2c(C(=O)NCC34CC5CC(CC(C5)C3)C4)cccc2n1` [Compound 815, 5-N-(adamantan-1-ylmethyl)-2-N-1H-tetrazol-5-ylmidazo[1,2-a] pyridine-2,5-dicarboxamide], the figure is less than 2000 nM; as for `O=C(NCC12CC3CC(CC(C3)C1)C2)c1cccc2nc(Cn3nnc(-c4ccccn4)n3)cn12` [Compound 816, N-(adamantan-1-ylmethyl)-2-[(5-pyridin-2-yl-2H-tetrazol-2-yl)methyl]imidazo [1,2-a]pyridine-5-carboxamide], less than 2000 nM. As to `O=C(NCC12CC3CC(CC(C3)C1)C2)c1cccc2nc(Cn3nnnc3-c3ccncc3)cn12` [Compound 818, N-(adamantan-1-ylmethyl)-2-[(5-pyridin-4-yl-1H-tetrazol-1-yl)methyl]imidazo [1,2-a]pyridine-5-carboxamide], the half-inhibitory concentration (IC50) (determined as in Example 4A) was less than 2000 nM.

As to `O=C(NCC12CC3CC(CC(C3)C1)C2)c1cccc2nc(CC(=O)N3CCS(=O)(=O)CC3)cn12` [Compound 820, N-(adamantan-l-ylmethyl)-2-[2-(1,1-dioxidothio-morpholin-4-yl)-2-oxoethyl] imidazo[1,2-a] pyridine-5-carboxamide], the IC50 (determined as in Example 4A) was less than 2000 nM.

On to `N[C@@H]1CCN(Cc2cn3c(C(=O)NCC4(c5ccc(Cl)cc5)CCCCC4)cccc3n2)C1` [Compound 821, 2-{[(3R)-3-aminopyrrolidin-1-yl]methyl}-N-{[1-(4-chlorophenyl)cyclohexyl]methyl} imidazo[1,2-a]pyridine-5-carboxamide], for which the IC50 (determined as in Example 4A) was less than 2000 nM.

Consider `N[C@@H]1CCN(Cc2cn3c(C(=O)NCC4(c5ccc(C(F)(F)F)cc5)CCCCC4)cccc3n2)C1` [Compound 822, 2-{[(3R)-3-aminopyrrolidin-1-yl]methyl}-N-({1-[4-(trifluoromethyl)phenyl]cyclohexyl}methyl) imidazo[1,2-a] pyridine-5-carboxamide], for which the IC50 (determined as in Example 4A) is less than 2000 nM. For the compound `CC(C)CC(CNC(=O)c1cccc2nc(CN3CC[C@@H](N)C3)cn12)c1cccnc1` (stereo partly drawn) [Compound 823, 2-{[(3R)-3-aminopyrrolidin-1-yl]methyl}-N-(4-methyl-2-pyridin-3-ylpentyl)imidazo[1,2-a]pyridine-5-carboxamide], the IC50 (determined as in Example 4A) is less than 2000 nM. Same read-out and setting: as for `Cc1ccc(C2(CNC(=O)c3cccc4nc(CN5CC[C@@H](N)C5)cn34)CCCCC2)cn1` [Compound 824, 2-{[(3R)-3-aminopyrrolidin-1-yl]methyl}-N-{[1-(6-methylpyridin-3-yl)cyclohexyl]methyl} imidazo[1,2-a] pyridine-5-carboxamide], the figure is less than 2000 nM.

The record behind these values is US8431593B2, “Heteroaryl amide derivatives” (H. Lundbeck A/S, priority 2006, dated 2013).
